Structures can show the parent of a compound that is named as a salt.
Tests used:
BMEC = BMEC treated with glucocorticoid; cited from earlier work
[1] = Fluorescein flux through BMEC monolayer co-cultured with differentiating NPC (in vitro BBB model); assay type: in vitro ADME, rat; settings: rat; through the in vitro model, BMEC with NPC co-culture, 1 μM apical; read-out: permeability (Pe) (converted)
Text: (§1) Many methods can be used to determine BBB permeability as well as uptake and efflux rates using an in vitro model. As an example, the rates for trans-BBB transport can be used to directly determine a pseudo steady-state permeability value (Pe) which is an estimate of in vivo permeability for a particular pharmaceutical compound, protein, or drug carrier. With the assumption that the concentration in the upper fluid compartment is static, and with a correction for the resistance provided by the membrane itself, the permeability can be readily determined for each test compound. Briefly, the transcytosis rate (Q) can be divided by the concentration of material added to the apical chamber (Ca) and the area of the membrane (Am) to yield a total permeability (Pt) that includes resistances due to the monolayer and the membrane (Pt=Q/[AmCa], or using clearance volume terminology Pt is equal to the slope of the clearance volume versus time line divided by the membrane area). Subsequently, Pe can be calculated by correcting for the resistance supplied by the cell free membrane (Pm) (1/Pe=1/Pt−1/Pm) (Bickel, U. How to measure drug transport across the blood-brain barrier. NeuroRx 2005, 2, 15-26.).
(§2) The permeability was assessed by determining the flux of fluorescein through the BMEC monolayer. Fluorescein sodium salt in DMEM was added to the apical filter compartment to produce a uniform initial concentration of 1 μM. Subsequently, 200 μl were removed from the basolateral compartment after 0, 15, 30, 45, and 60 min. The fluorescence was measured with the FLx800 fluorescence reader (Bio-Tek Instruments) and the rates of fluorescein accumulation in the lower compartment used to determine the permeability as described previously (Perriere et al. 2005).

BMEC monolayer = experiment: as above; assay type: in vitro ADME, rat
Text: as §1, §2

rat BMEC = rat BMEC co-cultured with astrocytes; cited from earlier work
[2] = cited from earlier work

SMILES	TEER (BMEC)	frayed junctions (BMEC)	Papp A→B at 60 min, 1 μM [1]	reduction of monolayer permeability by NPC co-culture (BMEC monolayer; BMEC with differentiating NPC vs BMEC without NPC, 24 h co-culture)	permeability (Pe) (BMEC monolayer; through the in vitro model, BMEC with NPC co-culture, 1 μM apical)	fluorescein permeability (rat BMEC)	crossing of the BBB in vivo [2]
C[C@]12CCC(=O)C=C1CC[C@@H]1[C@@H]2[C@@H](O)C[C@@]2(C)[C@H]1CC[C@]2(O)C(=O)CO [hydrocortisone]	218 Ω×cm^2	12 % frayed					
O=C1OC2(c3ccc(O)cc3Oc3cc(O)ccc32)c2ccccc21 [fluorescein, Fluorescein sodium salt]			5.5 ×10⁻⁶ cm/s	33%	5.5 ×10⁻⁶ cm/s	4.5 ×10⁻⁶ cm/s	does not appreciably cross the BBB
C[C@]12C[C@H](O)[C@H]3[C@@H](CCC4=CC(=O)CC[C@@]43C)[C@@H]1CC[C@@H]2C(=O)CO [corticosterone]	168 Ω×cm^2	21 % frayed					

Source: patent US8293495B2, “Blood-brain barrier model” (Wisconsin Alumni Research Foundation, priority 2006, dated 2012)
